In patent US20240225915A1, “COMPOSITIONS FOR FIGHTING MALODORS” (SYMRISE AG, priority 2021, published 2024):

Test: Evaluation of malodor neutralization: sniffer box evaluation by 12 expert panelists
Details: arithmetic mean of panelist ratings; line scale from no odor (0) to strongest imaginable (10), moderate (5) = unperfumed malodor reference; 1 g water added to each sample
Method: The object of the following experiments has been the evaluation of performance against feminine hygiene malodor out of sniffer boxes. For this purpose 12 expert panelists evaluated the samples from sniffer boxes. The malodor was placed on different cotton balls and put into an aroma-tight air bag with a volume of […] together with the raw materials placed in a petri dish. Perfume- and malodor intensities were evaluated on a continuous line scale with ten labels ranging from “no odor” (0) to “strongest imaginable” (10) odor with “moderate” (5) being the unperfumed malodor reference sample. Note that panelists only see the verbal anchors not the numbers (0-10) while rating. Results are arithmetic means of the individual panelist's ratings. Subsequently, the data obtained from the olfactory tests were evaluated statistically by a Friedmann-Test for overall difference between the samples followed by a pairwise comparison to identify significant differences among individual samples.

SMILES | Malodor (malodor intensity)
CC1CCC(C(C)C)C(OC(=O)C(C)O)C1 (stereo not drawn) [C3, menthyl lactate] | 4.3
CC1CCC(C(C)C)C2(C1)OCC(CO)O2 (stereo not drawn) [C4, menthone glycerin acetal] | 4.4
CC(=O)OC1CC(C)CCC1C(C)C (stereo not drawn) [c2, menthyl acetate] | 4.4
